In EP4799620A1, “ORAL PHARMACEUTICAL FORM FOR BIPHASIC RELEASE, COMPOSED OF A MULTIP[…], PROCESS FOR PREPARING SAME AND […] USE OF ORAL FORM” (Prati, Donaduzzi & Cia LTDA, priority 2023, dated 2025):
Read-outs that look alike come from different tables or passages of the source.

Assays:
[1] = test system: postmenopausal women; settings: trazodone 50-100 mg/day; cited from earlier work
[2] = in water; cited from earlier work
[3] = cited from earlier work
[4] = 50 mg/day; double-blind controlled study; cited from earlier work
[5] = test system: pregnant women; settings: 50 mg/day; 67 pregnant women; third trimester of pregnancy; cited from earlier work
[6] = test system: patients with Alzheimer's disease; settings: 50 mg/day; cited from earlier work
[7] = test system: patients with secondary insomnia; test: Randomized, controlled, cross-over clinical trial: actigraphy analysis; format: in vivo
Procedure: (§1) Based on the foregoing, a double-blind clinical trial was conducted to evaluate the impact of the medication on sleep quality and total sleep time, as well as to quantify the reduction in sleep latency in patients diagnosed with comorbid insomnia, through actigraphy and assessment scales.
(§2) The objective of the clinical trial was to evaluate the impact of the medication on sleep quality and total sleep time, as well as to quantify the reduction in sleep latency in patients diagnosed with comorbid insomnia, through actigraphy and assessment scales. The study was conducted with 30 patients.
Of the 29 patients, 24 correctly completed the proposed actigraphy usage period. TABLE 2: ACTIGRAPHY ANALYSIS RESULTS.

[8] = test system: healthy volunteers; settings: daily doses of 50 and 100 mg; cited from earlier work
[9] = test system: patients with secondary insomnia; test: Randomized, controlled, cross-over clinical trial: questionnaires and subjective sleep perception; format: in vivo; settings: for Sleep latency / Total sleep time: subjective
Procedure: as §1, §2
TABLE 1: RESULTS OF THE ANALYSIS OF THE QUESTIONNAIRES AND OF THE SUBJECTIVE SLEEP PERCEPTION.

CN1CCN(C(=O)OC2c3nccnc3C(=O)N2c2ccc(Cl)cn2)CC1 (stereo not drawn) [zopiclone]
sleep quality and sexual dysfunction [1]: improved

O=c1n(CCCN2CCN(c3cccc(Cl)c3)CC2)nc2ccccn12 [Trazodone]
sleep quality and sexual dysfunction [1]: improved
pKa [2]: 6.74
solubility ([3]; above its pKa, neutral and basic conditions): very low
solubility ([3]; acidic medium, pH of the medium below its pKa): highly soluble
maintaining sleep [4]: effective
Sedative effects for the treatment of insomnia [5]: efficacy
treatment of insomnia [6]: safe and effective
Awakenings ([7]; 50mg, Actigraphy 1): 12.97±3.85@
Sleep latency ([7]; 50mg, Actigraphy 1): 6.13 ± 5.56 min
Total sleep time ([7]; 50mg, Actigraphy 1): 50mg 461.80±106.60 min.
WASO ([7]; 50mg, Actigraphy 1): 84.20 ± 26.09 min
Awakenings ([7]; 50mg, Actigraphy 2): 10.68±3.44
Sleep latency ([7]; 50mg, Actigraphy 2): 7.16 ± 7.48 min
Total sleep time ([7]; 50mg, Actigraphy 2): 479.90 ± 95.25 min
WASO ([7]; 50mg, Actigraphy 2): 75.38 ± 29.34 min
Awakenings ([7]; 50mg, Actigraphy 3): 11.35±3.59@
Sleep latency ([7]; 50mg, Actigraphy 3): 4.40 ± 4.40 min
Total sleep time ([7]; 50mg, Actigraphy 3): 476.00 ± 91.94 min
WASO ([7]; 50mg, Actigraphy 3): 73 ± 26.45 min
Awakenings ([7]; 75mg, Actigraphy 1): 12.64±2.57
Sleep latency ([7]; 75mg, Actigraphy 1): 6.77 ± 5.96 min
Total sleep time ([7]; 75mg, Actigraphy 1): 75 mg 486.00±151.70 min.
WASO ([7]; 75mg, Actigraphy 1): 82.33 ± 20.21 min
Awakenings ([7]; 75mg, Actigraphy 2): 11.37±1.56
Sleep latency ([7]; 75mg, Actigraphy 2): 5.28 ± 4.71 min
Total sleep time ([7]; 75mg, Actigraphy 2): 514.10 ± 166.50 min
WASO ([7]; 75mg, Actigraphy 2): 88.29 ± 20.62 min
Awakenings ([7]; 75mg, Actigraphy 3): 11.71±2.54£2
Sleep latency ([7]; 75mg, Actigraphy 3): 7.33 ± 7.90 min
Total sleep time ([7]; 75mg, Actigraphy 3): 498.60 ± 126.30 min
WASO ([7]; 75mg, Actigraphy 3): 83.44 ± 32.30 min
Awakenings ([7]; no dose stated, Actigraphy 1): 12.84±3.37@
Sleep latency ([7]; no dose stated, Actigraphy 1): 6.37 ± 5.60 min
Total sleep time ([7]; no dose stated, Actigraphy 1): 470.90 ± 122.70 min
WASO ([7]; no dose stated, Actigraphy 1): 84.20 ± 26.09 min
Awakenings ([7]; no dose stated, Actigraphy 2): 10.92±2.89
Sleep latency ([7]; no dose stated, Actigraphy 2): 6.47 ± 6.51 min
Total sleep time ([7]; no dose stated, Actigraphy 2): 491.90 ± 121.50 min
Awakenings ([7]; no dose stated, Actigraphy 3): 11.49±3.186@#
Sleep latency ([7]; no dose stated, Actigraphy 3): 5.50 ± 5.97 min
Total sleep time ([7]; no dose stated, Actigraphy 3): 484.50 ± 104.00 min
WASO ([7]; no dose stated, Actigraphy 3): 73.00 ± 26.45 min
slow waves during sleep [8]: increased
Hamilton Depression Scale ([9]; 50 mg, Consultation 1): 16.31±8.60@#
Insomnia Severity Scale ([9]; 50 mg, Consultation 1): 19.88±4.04@#
Nights with awakenings/week ([9]; 50 mg, Consultation 1): 3.00±0.00@
Pittsburgh Sleep Quality Questionnaire ([9]; 50 mg, Consultation 1): 14.13±3.11@#
Hamilton Depression Scale ([9]; 50 mg, Consultation 2): 11.88±6.06@
Insomnia Severity Scale ([9]; 50 mg, Consultation 2): 17.69±6.18&*
Nights with awakenings/week ([9]; 50 mg, Consultation 2): 2.40±1.05
Pittsburgh Sleep Quality Questionnaire ([9]; 50 mg, Consultation 2): 11.19±2.90
Hamilton Depression Scale ([9]; 50 mg, Consultation 3): 11.13±6.98
Insomnia Severity Scale ([9]; 50 mg, Consultation 3): 11.14±7.24#&
Nights with awakenings/week ([9]; 50 mg, Consultation 3): 2.00±1.17
Hamilton Depression Scale ([9]; 50 mg, Consultation 4): 7,875±4.28
Insomnia Severity Scale ([9]; 50 mg, Consultation 4): 7.50±4.48@#
Nights with awakenings/week ([9]; 50 mg, Consultation 4): 1.06±1.39@#
Pittsburgh Sleep Quality Questionnaire ([9]; 50 mg, Consultation 4): 9.81±3.50@
Hamilton Depression Scale ([9]; 75 mg, Consultation 1): 18.31±11.41@
Insomnia Severity Scale ([9]; 75 mg, Consultation 1): 21.08±3.84@
Nights with awakenings/week ([9]; 75 mg, Consultation 1): 2.84±0.55
Pittsburgh Sleep Quality Questionnaire ([9]; 75 mg, Consultation 1): 13.54±3.43@
Hamilton Depression Scale ([9]; 75 mg, Consultation 2): 14.85±6.65
Insomnia Severity Scale ([9]; 75 mg, Consultation 2): 19.75±3.84
Nights with awakenings/week ([9]; 75 mg, Consultation 2): 3.00±0.00
Pittsburgh Sleep Quality Questionnaire ([9]; 75 mg, Consultation 2): 12.77±2.20
Hamilton Depression Scale ([9]; 75 mg, Consultation 3): 12.5±6.81
Insomnia Severity Scale ([9]; 75 mg, Consultation 3): 16.69±8.34
Nights with awakenings/week ([9]; 75 mg, Consultation 3): 2.58±0.90
Pittsburgh Sleep Quality Questionnaire ([9]; 75 mg, Consultation 3): 13.58±3.08
Hamilton Depression Scale ([9]; 75 mg, Consultation 4): 8.08±3.57@#
Insomnia Severity Scale ([9]; 75 mg, Consultation 4): 7,33±5,61@#
Nights with awakenings/week ([9]; 75 mg, Consultation 4): 1.38±1.55
Pittsburgh Sleep Quality Questionnaire ([9]; 75 mg, Consultation 4): 9.91±3.26@#
Hamilton Depression Scale ([9]; no dose stated, Consultation 1): 17,21±9,82@#
Insomnia Severity Scale ([9]; no dose stated, Consultation 1): 20.41±3.93@#
Nights with awakenings/week ([9]; no dose stated, Consultation 1): 2.93±0.37@
Pittsburgh Sleep Quality Questionnaire ([9]; no dose stated, Consultation 1): 13.86±3.21@
Hamilton Depression Scale ([9]; no dose stated, Consultation 2): 13.21±6.40&*
Insomnia Severity Scale ([9]; no dose stated, Consultation 2): 18.57±5.32&*
Nights with awakenings/week ([9]; no dose stated, Consultation 2): 2.67±0.82
Pittsburgh Sleep Quality Questionnaire ([9]; no dose stated, Consultation 2): 11.9±2.69
Hamilton Depression Scale ([9]; no dose stated, Consultation 3): 11,74±6,80#&
Insomnia Severity Scale ([9]; no dose stated, Consultation 3): 13.81±8.14#&
Nights with awakenings/week ([9]; no dose stated, Consultation 3): 2.26±1.08
Pittsburgh Sleep Quality Questionnaire ([9]; no dose stated, Consultation 3): 12.59±3.68
Hamilton Depression Scale ([9]; no dose stated, Consultation 4): 7.96±3.93@*
Insomnia Severity Scale ([9]; no dose stated, Consultation 4): 7.42±4.90@#
Nights with awakenings/week ([9]; no dose stated, Consultation 4): 1.20±1.45@#
Pittsburgh Sleep Quality Questionnaire ([9]; no dose stated, Consultation 4): 9.85±3.34@#
Sleep latency ([9]; 50mg, Consultation 1): 50.5 ± 40.46 min
Total sleep time ([9]; 50mg, Consultation 1): 273.80 ± 95.42 min
Sleep latency ([9]; 50mg, Consultation 2): 37.19 ± 20.00 min
Total sleep time ([9]; 50mg, Consultation 2): 307.50 ± 75.50 min
Sleep latency ([9]; 50mg, Consultation 3): 42,56±47,20 min.
Total sleep time ([9]; 50mg, Consultation 3): 348.80 ± 103.30 min
Sleep latency ([9]; 50mg, Consultation 4): 26.31 ± 25.20 min
Sleep latency ([9]; 75mg, Consultation 1): 93.08 ± 99.11 min
Total sleep time ([9]; 75mg, Consultation 1): 281.50 ± 128.20 min
Sleep latency ([9]; 75mg, Consultation 2): 69.69 ± 43.86 min
Total sleep time ([9]; 75mg, Consultation 2): 272.30 ± 87.00 min
Sleep latency ([9]; 75mg, Consultation 3): 63.08 ± 53.17 min
Total sleep time ([9]; 75mg, Consultation 3): 290.80 ± 72.85 min
Sleep latency ([9]; 75mg, Consultation 4): 33.85 ± 25.67 min
Total sleep time ([9]; 75mg, Consultation 4): 378.50 ± 89.61 min
Sleep latency ([9]; no dose stated, Consultation 1): 69,59±74,51@ min.
Total sleep time ([9]; no dose stated, Consultation 1): 277.20±109.20@ min.
Sleep latency ([9]; no dose stated, Consultation 2): 51.76 ± 36.18 min
Total sleep time ([9]; no dose stated, Consultation 2): 291.70 ± 81.33 min
Sleep latency ([9]; no dose stated, Consultation 3): 51.76 ± 50.13 min
Total sleep time ([9]; no dose stated, Consultation 3): 322.80 ± 94.07 min
Sleep latency ([9]; no dose stated, Consultation 4): 29,69±25,24@# min.
Total sleep time ([9]; no dose stated, Consultation 4): 341.80±110.00@ min.
